Results taken from ChEMBL document CHEMBL4651402, “Screening of ~5500 FDA-approved drugs and clinical candidates for anti-SARS-CoV-2 activity” (2021).

Test system: SARS-CoV-2
Test: microbe, parasite or virus in culture
Conditions: Severe acute respiratory syndrome coronavirus 2, Vero C1008, 48 h

| SMILES | IC50 | IC50 (read-out: pIC50 (converted)) |
| --- | --- | --- |
| C[n+]1ccccc1C=NO [PRALIDOXIME] | > 20 µM | > 20 µM |
| COc1ccc2c(c1)C(=O)N(CCc1ccc(S(=O)(=O)NC(=O)NC3CCCCC3)cc1)C(=O)C2(C)C [GLIQUIDONE] | > 20 µM | > 20 µM |
| c1ccc2c(c1)OCC(C1=NCCN1)O2 (stereo unspecified) [IDAZOXAN] | > 20 µM | > 20 µM |
| COc1ccc(C(C)=O)c(O)c1 [PAEONOL] | > 20 µM | > 20 µM |
| Cc1nc2cc(C(c3ccccc3)n3ccnc3)ccc2[nH]1 (stereo unspecified) [IRTEMAZOLE] | > 20 µM | > 20 µM |
| c1ccc2c(c1)OCC(CN1CCCCC1)O2 (stereo unspecified) [PIPEROXAN] | > 20 µM | > 20 µM |
| CC(=O)OCC(=O)[C@H]1CC[C@H]2[C@@H]3CC=C4C[C@@H](O)CC[C@]4(C)[C@H]3CC[C@]12C | > 20 µM | > 20 µM |
| Cc1c(C(=O)N2CCOc3ccc(-c4ccc(N)nc4)cc3C2)ccc(S(C)(=O)=O)c1F | > 20 µM | > 20 µM |
| O=C1CCC(c2ccccc2)(C2CCN(C/C=C/c3ccccc3)CC2)C(=O)N1 (stereo unspecified) | > 20 µM | > 20 µM |
| O=C(O)c1cc(NC(=O)[C@@H](Cc2ccccc2F)NC(=O)c2cc3[nH]cnc3cc2C(=O)NCC2CCCCCC2)cc(C(=O)O)c1 | > 20 µM | > 20 µM |
| O=C(Nc1c(Cl)cncc1Cl)c1ccc(OC(F)F)c(OCC2CC2)c1 [ROFLUMILAST] | > 20 µM | > 20 µM |
| COc1cc2ncnc(Oc3cccc(NC(=O)Nc4cc(C(C)(C)C(F)(F)F)on4)c3)c2cc1OC [CEP-32496] | > 20 µM | > 20 µM |
| NS(=O)(=O)c1cc2c(cc1Cl)NC(C1CC3C=CC1C3)NS2(=O)=O (stereo unspecified) [CYCLOTHIAZIDE] | > 20 µM | > 20 µM |
| CNC(=O)c1cccc(-c2ccc3c(N4CCOC[C@@H]4C)nc(N4CCOC[C@@H]4C)nc3n2)c1 [VISTUSERTIB] | > 20 µM | > 20 µM |
| N[C@@H]1CCCCN(c2c(F)cc3c(=O)c(C(=O)O)cn(C4CC4)c3c2Cl)C1 [BESIFLOXACIN] | > 20 µM | > 20 µM |
| CCCCCCCCCC(=O)O[C@H]1CC[C@H]2[C@@H]3CCC4=CC(=O)CC[C@@H]4[C@H]3CC[C@]12C [NANDROLONE DECANOATE] | > 20 µM | > 20 µM |
| C[C@@]1(c2nc3cccc(C(N)=O)c3[nH]2)CCCN1 | > 20 µM | > 20 µM |
| Nc1cc2[nH]cnc2c(=O)[nH]1 [DEZAGUANINE] | > 20 µM | > 20 µM |
| CCN(CC)CC(=O)OCC(=O)C1(O)CCC2C3CCC4=CC(=O)CCC4(C)C3C(O)CC21C (stereo unspecified) | > 20 µM | > 20 µM |

| SMILES | IC50 | IC50 (read-out: pIC50 (converted)) |
| --- | --- | --- |
| CC(C)NCC(O)c1ccccc1Cl (stereo unspecified) [CLORPRENALINE] | > 20 µM | > 20 µM |
| CC(=O)[C@@]1(O)CCC2C3C[C@H](C)C4=CC(=O)CCC4(C)C3CCC21C (stereo partly specified) | > 20 µM | > 20 µM |
| CN1CCC[C@H]1c1cccnc1 [NICOTINE] | > 20 µM | > 20 µM |
| C[C@@H]1CC[C@H]2[C@@H](C)C(=O)O[C@@H]3O[C@@]4(C)CC[C@@H]1[C@]32OO4 [ARTEMISININ] | > 20 µM | > 20 µM |
| O[C@@H](CNC[C@H](O)[C@H]1CCc2cc(F)ccc2O1)[C@@H]1CCc2cc(F)ccc2O1 | > 20 µM | > 20 µM |
| C=C1[C@@H](C)[C@H]2[C@H](Cc3ccccc3)NC(=O)[C@]23OC(=O)/C=C\[C@H](O)CCC[C@@H](C)C/C=C\[C@H]3[C@@H]1O | > 20 µM | > 20 µM |
| O=C(NCC(O)CO)c1c(I)c(C(=O)NCC(O)CO)c(I)c(N(CCO)C(=O)CO)c1I (stereo unspecified) [IOVERSOL] | > 20 µM | > 20 µM |
| CC(O)CO (stereo unspecified) [PROPYLENE GLYCOL] | > 20 µM | > 20 µM |
| CN1CCC2=C[C@H](O)[C@H]3OC(=O)c4cc5c(cc4[C@H]3[C@@H]21)OCO5 | > 20 µM | > 20 µM |
| CO[C@]12C[C@@H](COC(=O)c3cncc(Br)c3)CN(C)[C@@H]1Cc1cn(C)c3cccc2c13 [NICERGOLINE] | > 20 µM | > 20 µM |
| CNCC(=O)O [SARCOSINE] | > 20 µM | > 20 µM |
| CNCCCN1c2ccccc2CCc2ccccc21 [DESIPRAMINE] | > 20 µM | > 20 µM |
| C[C@H](Cc1ccccc1)N(C)Cc1ccco1 | > 20 µM | > 20 µM |
| Cn1cc(CC(N)C(=O)O)c2ccccc21 (stereo unspecified) [1-METHYLTRYPTOPHAN] | > 20 µM | > 20 µM |
| C[C@]12CCC(=O)C=C1CC[C@@H]1[C@@H]2[C@@H](O)C[C@@]2(C)[C@H]1CC[C@]2(O)C(=O)CO [HYDROCORTISONE] | > 20 µM | > 20 µM |
| CC(C)(CO)C(O)C(=O)NCCCC(=O)O (stereo unspecified) | > 20 µM | > 20 µM |
| COc1cc([C@@H]2c3cc4c(cc3[C@H](O)[C@H]3COC(=O)[C@H]23)OCO4)cc(OC)c1OC [PODOFILOX] | > 20 µM | > 20 µM |
| Cc1cccc(NC(=O)N[C@@H]2N=C(c3ccccc3)c3ccccc3N(C)C2=O)c1 [L-365260] | > 20 µM | > 20 µM |
| Cc1ccc(=O)n(-c2ccccc2)c1 [PIRFENIDONE] | > 20 µM | > 20 µM |
